Data reported in patent US10703765B2 (priority 2014, dated 2020).
Where a name gives a salt, the structure may show the parent alone. Read-outs that look alike come from different tables or passages of the source.

Target: human σ1 receptor (Homo sapiens, UniProt Q99720)
Experiment: biochemical
Type: binding
Set-up: μ and σ1 dual binding: key to the marks not given beside the values
[1] = combined class from Ki-σ1 (human σ1 receptor, A1) and Ki-μ (human μ-opioid receptor, A2) radioligand binding
[2] = read-out: μ and σ1 dual binding

Sequence of human σ1 receptor (Q99720 whole entry): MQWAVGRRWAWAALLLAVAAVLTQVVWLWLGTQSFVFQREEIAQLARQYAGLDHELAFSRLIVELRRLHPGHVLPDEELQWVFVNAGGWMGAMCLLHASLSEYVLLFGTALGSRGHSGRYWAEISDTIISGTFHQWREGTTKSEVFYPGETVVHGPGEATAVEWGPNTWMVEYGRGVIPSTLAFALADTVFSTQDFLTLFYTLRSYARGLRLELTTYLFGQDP

For `O=C1COC2(CCN(Cc3ccccc3)CC2)CN1c1ccccc1O` [Example 285, 9-benzyl-4-(2-hydroxyphenyl)-1-oxa-4,9-diazaspiro[5.5]undecan-3-one], the “μ and σ1 dual binding” value [1] was “++”.

`O=C1COC2(CCN(CCc3ccccc3)CC2)CN1c1ccccc1O` [Example 286, 4-(2-hydroxyphenyl)-9-phenethyl-1-oxa-4,9-diazaspiro[5.5]undecan-3-one] was tested, and the “μ and σ1 dual binding” value [1] was “++”.

`O=C1COC2(CCN(Cc3ccccc3)CC2)CN1c1cccc(O)c1` [Example 287, 9-benzyl-4-(3-hydroxyphenyl)-1-oxa-4,9-diazaspiro[5.5] undecan-3-one] was tested, and the “μ and σ1 dual binding” value [1] was “++”.

`O=C1COC2(CCN(CCc3ccccc3)CC2)CN1c1cccc(O)c1` [Example 288, 4-(3-hydroxyphenyl)-9-phenethyl-1-oxa-4,9-diazaspiro[5.5]undecan-3-one] showed a Ki [2] of under 500 nM.

For `O=C1COC2(CCN(CCc3ccccc3O)CC2)CN1c1ccccc1` [Example 289, 9-(2-hydroxyphenethyl)-4-phenyl-1-oxa-4,9-diazaspiro[5.5]undecan-3-one], the Ki [2] was under 500 nM.

`O=C1COC2(CCN(CCc3ccc(O)cc3)CC2)CN1c1ccccc1` [Example 290, 9-(4-hydroxyphenethyl)-4-phenyl-1-oxa-4,9-diazaspiro[5.5]undecan-3-one] was tested, and the “μ and σ1 dual binding” value was “++”.

`O=C1COC2(CCN(CCc3cccc(O)c3)CC2)CN1c1ccccc1` [Example 291, 9-(3-hydroxyphenethyl)-4-phenyl-1-oxa-4,9-diazaspiro[5.5]undecan-3-one] gave a Ki [2] of under 500 nM.

In the case of `Oc1ccc(CCN2CCC3(CC2)CN(c2ccccc2)CCO3)cc1` [Example 292, 4-(2-(4-phenyl-1-oxa-4,9-diazaspiro[5.5]undecan-9-yl)ethyl)phenol], the “μ and σ1 dual binding” value [1] is reported as “++”.

For `CC1OC2(CCN(CCc3ccccc3)CC2)CN(c2ccc(O)cc2)C1=O` (centres unmarked) [Example 293, 4-(4-hydroxyphenyl)-2-methyl-9-phenethyl-1-oxa-4,9-diazaspiro[5.5]undecan-3-one], the “μ and σ1 dual binding” value was “++”.

`CC1OC2(CCN(CCc3ccccc3)CC2)CN(c2cccc(O)c2)C1=O` (centres unmarked) [Example 294, 4-(3-hydroxyphenyl)-2-methyl-9-phenethyl-1-oxa-4,9-diazaspiro[5.5]undecan-3-one] was tested, and the “μ and σ1 dual binding” value was “++”.

In the case of `CC1OC2(CCN(CCc3ccccc3O)CC2)CN(c2ccccc2)C1=O` (centres unmarked) [Example 295, 9-(2-hydroxyphenethyl)-2-methyl-4-phenyl-1-oxa-4,9-diazaspiro[5.5]undecan-3-one], the Ki is reported as under 100 nM.

`CC1OC2(CCN(CCc3ccccc3)CC2)CN(c2ccccc2O)C1=O` (centres unmarked) [Example 296, 4-(2-hydroxyphenyl)-2-methyl-9-phenethyl-1-oxa-4,9-diazaspiro[5.5]undecan-3-one] was tested, and the “μ and σ1 dual binding” value was “++”.

With `CC(C)C1OC2(CCN(CCc3ccccc3O)CC2)CN(c2ccccc2F)C1=O` (centres unmarked) [Example 297, 4-(2-fluorophenyl)-9-(2-hydroxyphenethyl)-2-isopropyl-1-oxa-4,9-diazaspiro[5.5]undecan-3-one] the Ki was under 100 nM.

For `CC1OC2(CCN(CCc3cccc(O)c3)CC2)CN(c2ccccc2F)C1=O` (centres unmarked) [Example 298, 4-(2-fluorophenyl)-9-(3-hydroxyphenethyl)-2-methyl-1-oxa-4,9-diazaspiro[5.5]undecan-3-one], the Ki [2] was under 100 nM.

`Oc1ccccc1CCN1CCC2(CC1)CN(Cc1ccccc1)CCO2` [Example 299, 2-(2-(4-benzyl-1-oxa-4,9-diazaspiro[5.5]undecan-9-yl)ethyl)phenol] was tested, and the Ki [2] was under 100 nM.

For `Cl.O=C1COC2(CCN(CCc3ccccc3O)CC2)CN1Cc1ccccn1` [Example 300, 9-(2-hydroxyphenethyl)-4-(pyridin-2-ylmethyl)-1-oxa-4,9-diazaspiro[5.5]undecan-3-one hydrochloride], the “μ and σ1 dual binding” value was “++”.

For `O=C1C(CO)OC2(CCN(CCc3ccccc3O)CC2)CN1c1ccccc1F` (centres unmarked) [Example 301, 4-(2-fluorophenyl)-2-(hydroxymethyl)-9-(2-hydroxyphenethyl)-1-oxa-4,9-diazaspiro[5.5]undecan-3-one], the “μ and σ1 dual binding” value [1] was “++”.

With `O=C1C(CCCO)OC2(CCN(CCc3ccccc3)CC2)CN1c1ccccc1F` (centres unmarked) [Example 302, 4-(2-fluorophenyl)-2-(3-hydroxypropyl)-9-phenethyl-1-oxa-4,9-diazaspiro[5.5]undecan-3-one] the Ki was under 500 nM.

With `CC1OC2(CCN(CCc3csc(N)n3)CC2)CN(c2ccccc2F)C1=O` (centres unmarked) [Example 303, 9-(2-(2-aminothiazol-4-yl)ethyl)-4-(2-fluorophenyl)-2-methyl-1-oxa-4,9-diazaspiro[5.5]undecan-3-one] the Ki was under 500 nM.

`Nc1nc(CCN2CCC3(CC2)CN(Cc2ccc(C(F)(F)F)cn2)C(=O)CO3)cs1` [Example 304, 9-(2-(2-aminothiazol-4-yl)ethyl)-4-((5-(trifluoromethyl)pyridin-2-yl)methyl)-1-oxa-4,9-diazaspiro[5.5]undecan-3-one] gave a Ki [2] of under 500 nM.

`CC1OC2(CCN(CCn3nccc3N)CC2)CN(c2ccccc2)C1=O` (centres unmarked) [Example 305, 9-(2-(5-amino-1H-pyrazol-1-yl)ethyl)-2-methyl-4-phenyl-1-oxa-4,9-diazaspiro[5.5]undecan-3-one hydrochloride] was tested, and the Ki [2] was over 500 nM.

`CC(C)C1OC2(CCN(CCc3csc(N)n3)CC2)CN(c2ccccc2F)C1=O` (centres unmarked) [Example 306, 9-(2-(2-aminothiazol-4-yl)ethyl)-4-(2-fluorophenyl)-2-isopropyl-1-oxa-4,9-diazaspiro[5.5]undecan-3-one dihydrochloride] was tested, and the “μ and σ1 dual binding” value was “++”.

`Nc1nc(CCN2CCC3(CC2)CN(c2ccccc2)C(=O)C2(CC2)O3)cs1` [Example 307, 8-[2-(2-aminothiazol-4-yl)ethyl]-12-phenyl-4-oxa-8,12-diazadispiro[2.1.5.3]tridecan-13-one dihydrochloride] showed a Ki of under 500 nM.

For `Nc1nc(CCN2CCC3(CC2)CN(Cc2ccc(C(F)(F)F)cn2)C(=O)C2(CC2)O3)cs1` [Example 308, 8-[2-(2-aminothiazol-4-yl)ethyl]-12-{[5-(trifluoromethyl)pyridin-2-yl]methyl}-4-oxa-8,12-diazadispiro[2.1.5.3]tridecan-13-one trihydrochloride], the “μ and σ1 dual binding” value was “++”.

`CC1OC2(CCN(CCc3csc(N)n3)CC2)CN(c2cnccc2C(F)(F)F)C1=O` (centres unmarked) [Example 309, 9-(2-(2-aminothiazol-4-yl)ethyl)-2-methyl-4-(4-(trifluoromethyl)pyridin-3-yl)-1-oxa-4,9-diazaspiro[5.5]undecan-3-one] showed a Ki [2] of over 500 nM.

Work on `O=C1N(CCO)CC2(CCN(CCc3ccccc3)CC2)OC12CC2` [Example 310, 12-(2-hydroxyethyl)-8-phenethyl-4-oxa-8,12-diazadispiro[2.1.5.3]tridecan-13-one hydrochloride] yielded a Ki [2] of over 500 nM.

In the case of `O=C1C(CC2CCOCC2)OC2(CCN(CCc3ccccc3)CC2)CN1c1ccccc1F` (centres unmarked) [Example 311, 4-(2-fluorophenyl)-9-phenethyl-2-((tetrahydro-2H-pyran-4-yl)methyl)-1-oxa-4,9-diazaspiro[5.5]undecan-3-one hydrochloride], the Ki is reported as under 500 nM.

Work on `CC(C)C1OC2(CCN(CCc3ccccc3)CC2)CN(c2ccccc2F)C1=O` (centres unmarked) [Example 312, 4-(2-fluorophenyl)-2-isopropyl-9-phenethyl-1-oxa-4,9-diazaspiro[5.5]undecan-3-one hydrochloride] yielded a Ki of under 100 nM.

`CC(C)C1OC2(CCN(CCc3ccccn3)CC2)CN(c2ccccc2F)C1=O` (centres unmarked) [Example 313, 4-(2-fluorophenyl)-2-isopropyl-9-(2-(pyridin-2-yl)ethyl)-1-oxa-4,9-diazaspiro[5.5]undecan-3-one hydrochloride] was tested, and the Ki was under 500 nM.

Work on `COCCCC1OC2(CCN(CCc3ccccc3)CC2)CN(c2ccccc2F)C1=O` (centres unmarked) [Example 314, 4-(2-fluorophenyl)-2-(3-methoxypropyl)-9-phenethyl-1-oxa-4,9-diazaspiro[5.5]undecan-3-one hydrochloride] yielded a Ki of under 500 nM.

For `CC1OC2(CCN(CC(=O)N(C)c3ccccc3)CC2)CN(c2ccccc2)C1=O` (centres unmarked) [Example 315, N-methyl-2-(2-methyl-3-oxo-4-phenyl-1-oxa-4,9-diazaspiro[5.5]undecan-9-yl)-N-phenylacetamide hydrochloride], the Ki [2] was over 500 nM.

In the case of `Oc1cccc(N2CCOC3(CCN(CCc4ccccc4)CC3)C2)c1` [Example 316, 3-(9-phenethyl-1-oxa-4,9-diazaspiro[5.5]undecan-4-yl)phenol], the Ki [2] is reported as under 500 nM.

Molecule `c1ccc(CCN2CCC3(CC2)CN(c2ccccc2)CCO3)cc1` [Example 317, 9-phenethyl-4-phenyl-1-oxa-4,9-diazaspiro[5.5]undecane] has a Ki [2] of under 500 nM.

Work on `Oc1cccc(N2CCOC3(CCN(Cc4ccccc4)CC3)C2)c1` [Example 318, 3-(9-benzyl-1-oxa-4,9-diazaspiro[5.5]undecan-4-yl)phenol] yielded a Ki [2] of under 500 nM.

`COCC1CN(c2ccccc2)CC2(CCN(CCc3ccccc3)CC2)O1` (centres unmarked) [Example 319, 2-(methoxymethyl)-9-phenethyl-4-phenyl-1-oxa-4,9-diazaspiro[5.5]undecane hydrochloride] showed a Ki of under 500 nM.

In the case of `COc1cccc(CCN2CCC3(CC2)CN(c2ccccc2)CCO3)c1.Cl` [Example 320, 9-(3-methoxyphenethyl)-4-phenyl-1-oxa-4,9-diazaspiro[5.5]undecane hydrochloride], the “μ and σ1 dual binding” value is reported as “++”.

For `Oc1ccccc1CCN1CCC2(CC1)CN(c1ccccc1)CCO2` [Example 321, 2-(2-(4-phenyl-1-oxa-4,9-diazaspiro[5.5]undecan-9-yl)ethyl)phenol], the “μ and σ1 dual binding” value [1] was “++”.

In the case of `Oc1cccc(CCN2CCC3(CC2)CN(c2ccccc2)CCO3)c1` [Example 322, 3-(2-(4-phenyl-1-oxa-4,9-diazaspiro[5.5]undecan-9-yl)ethyl)phenol], the Ki [2] is reported as under 500 nM.

`OCCC1CN(c2ccccc2)CC2(CCN(CCc3ccccc3)CC2)O1` (centres unmarked) [Example 323, 2-(9-phenethyl-4-phenyl-1-oxa-4,9-diazaspiro[5.5]undecan-2-yl)ethanol hydrochloride] was tested, and the Ki was under 500 nM.

In the case of `c1ccc(CCN2CCC3(CC2)CN(Cc2ccccc2)CCO3)cc1` [Example 324, 4-benzyl-9-phenethyl-1-oxa-4,9-diazaspiro[5.5]undecane dihydrochloride], the Ki [2] is reported as under 100 nM.

In the case of `c1ccc(CCN2CCC3(CC2)CN(Cc2cscn2)CCO3)cc1` [Example 325, 9-phenethyl-4-(thiazol-4-ylmethyl)-1-oxa-4,9-diazaspiro[5.5]undecane dihydrochloride], the Ki [2] is reported as under 500 nM.
